The IC90 is the concentration needed for an effect of 90%. The low end stands for an effect from little substance, the high end for a need for much substance.

Type in all cases: cell-based
The test system of one test is pCH040.c/2625. Kind of test: MAGI assay, T/F HIV-1 clone pCH040.c/2625. The conditions noted are these: Human immunodeficiency virus 1, MAGI. An excerpt: (§1) We also examined the activity of GRL-compounds against Transmitter/founder (T/F) HIV-1 viruses. T/F viruses are involved in the initial infection. It is considered that T/F viruses virtually always use CCR5 rather than CXCR4 and infect T cells but not macrophages because […] of CD4 is needed to mediate virus entry for the initial transmission[20]–[24]. […] We obtained four HIV-1 T/F infectious clones. We determined the antiviral activity of GRL-117C, GRL-10007C and GRL-10018C on these HIV-1 clones using MAGI assay.
(§2) MAGI-CCR5 cells[18] were maintained in DMEM supplemented with 10% fetal calf serum (FCS: Gemini Bio-Products, West Sacramento, CA), 200 μg/ml G418, 100 μg/ml hygromycin B, and 100 μg/ml zeomycin. The Chinese hamster ovary (CHO) cells expressing CCR5[19] were maintained in Ham’s F-12 medium (GIBCO-BRL, Rockville, MD) supplemented with 10% FCS, 50 U/ml penicillin, and 50 μg/ml streptomycin in the presence of 5 μg/ml blasticidin S hydrochloride. TZM-bl cells were obtained from the NIH AIDS Reagent Program, and were cultured in DMEM with 10% FCS. Peripheral blood mononuclear cells (PBMCs) were isolated from buffy coats of HIV-1 seronegative individuals, and were activated with 10 μg/ml phytohemagglutinin (PHA) prior to use[16]. A laboratory wild-type R5-HIV-1 strain (HIV-1Ba-L)[37] was employed for drug susceptibility assays. AD101 (experimental CCR5 inhibitor) and VVC-resistant HIV clones[7],[8] were provided by Dr. John P. Moore of Cornell University for this study. The clones were propagated with activated PBMCs, and were used for the assays. […] The following reagents (plasmids) for T/F HIV-1 viruses[22],[24] were obtained through the NIH AIDS Reagent Program, Division of AIDS, NIAID, NIH: pCH040.c/2625 (cat# 11740), pCH106.c/2633 (cat# 11743), pTHRO.c/2626 (cat# 11745), and pCH058.c/2960 (cat# 11856), from Dr. John Kappes and Dr. Christina Ochsenbauer.
(§3) Antiviral assays using PHA-PBMCs (p24 assay) were conducted as previously reported[16],[38]. In brief, PHA-PBMCs (1 × 10^6/ml) were exposed to 50 TCID50 of HIV-1Ba-L or drug-resistant HIV-1 infectious clones in the presence or absence of various concentrations of drugs; 10-fold serial dilutions were performed in 96-well microculture plates. The amount of p24 antigens produced by the cells was determined on day 7 in the culture via a commercially available ELISA kit (PerkinElmer). The p24 production level in drug-free control cell cultures was used as the reference. […] Antiviral assays using MAGI-CCR5 cells (MAGI assay) were conducted as previously reported[16],[39]. Single-round virus infection assays using TZM-bl cells infected with R5-HIV-1s (HIV-1YU2, HIV-1KP-5pc, and HIV-1KP-5mvcR)[10] were also conducted as previously described.

A further test concerns R5-HIV-1Ba-L. Briefly: MAGI assay using MAGI/CCR5 cells and R5-HIV-1Ba-L. The conditions noted are these: Human immunodeficiency virus 1, BAL, Ba-L (MAGI). As for the experimental part: (§4) MAGI-CCR5 cells[18] were maintained in DMEM supplemented with 10% fetal calf serum (FCS: Gemini Bio-Products, West Sacramento, CA), 200 μg/ml G418, 100 μg/ml hygromycin B, and 100 μg/ml zeomycin. The Chinese hamster ovary (CHO) cells expressing CCR5[19] were maintained in Ham’s F-12 medium (GIBCO-BRL, Rockville, MD) supplemented with 10% FCS, 50 U/ml penicillin, and 50 μg/ml streptomycin in the presence of 5 μg/ml blasticidin S hydrochloride. TZM-bl cells were obtained from the NIH AIDS Reagent Program, and were cultured in DMEM with 10% FCS. Peripheral blood mononuclear cells (PBMCs) were isolated from buffy coats of HIV-1 seronegative individuals, and were activated with 10 μg/ml phytohemagglutinin (PHA) prior to use[16]. A laboratory wild-type R5-HIV-1 strain (HIV-1Ba-L)[37] was employed for drug susceptibility assays. AD101 (experimental CCR5 inhibitor) and VVC-resistant HIV clones[7],[8] were provided by Dr. John P. Moore of Cornell University for this study. The clones were propagated with activated PBMCs, and were used for the assays. A clinical HIV-1 strain, HIV-1KP-5pc, and an MVC-resistant isolate, HIV-1KP-5mvcR, were prepared and used for antiviral assays, as previously described[10],[38]. The following reagents (plasmids) for T/F HIV-1 viruses[22],[24] were obtained through the NIH AIDS Reagent Program, Division of AIDS, NIAID, NIH: pCH040.c/2625 (cat# 11740), pCH106.c/2633 (cat# 11743), pTHRO.c/2626 (cat# 11745), and pCH058.c/2960 (cat# 11856), from Dr. John Kappes and Dr. Christina Ochsenbauer.
as §3

The next test has as its system CC1/85 cl.7. Kind of test: Anti-HIV-1 assay, drug-naive clinical strain CC1/85 cl.7. The conditions noted are these: Human immunodeficiency virus 1. Here is the method: as §4, §3
Another test concerns pCH0.6.c/2633. Kind of test: MAGI assay, T/F HIV-1 clone pCH0.6.c/2633. The conditions noted are these: Human immunodeficiency virus 1, MAGI.
From the text: as §1, §2, §3

For another test, the system named is pTHRO.c/2626. Kind of test: MAGI assay, T/F HIV-1 clone pTHRO.c/2626. The conditions noted are these: Human immunodeficiency virus 1, MAGI.
From the text: as §1, §2, §3

Test [1] has as its system Transmitter/founder (T/F) HIV-1 viruses. Kind of test: MAGI assay, all four T/F viruses (range). The conditions noted are these: Human immunodeficiency virus 1, MAGI, read-out: IC50 values (range over four T/F viruses).
From the text: as §1
MAGI-CCR5 cells[18] were maintained in DMEM supplemented with 10% fetal calf serum (FCS: Gemini Bio-Products, West Sacramento, CA), 200 μg/ml G418, 100 μg/ml hygromycin B, and 100 μg/ml zeomycin. The Chinese hamster ovary (CHO) cells expressing CCR5[19] were maintained in Ham’s F-12 medium (GIBCO-BRL, Rockville, MD) supplemented with 10% FCS, 50 U/ml penicillin, and 50 μg/ml streptomycin in the presence of 5 μg/ml blasticidin S hydrochloride. TZM-bl cells were obtained from the NIH AIDS Reagent Program, and were cultured in DMEM with 10% FCS. […]
Antiviral assays using PHA-PBMCs (p24 assay) were conducted as previously reported[16],[38]. […] The amount of p24 antigens produced by the cells was determined on day 7 in the culture via a commercially available ELISA kit (PerkinElmer). […]

The test system of another test is pCH058.c/2960. Briefly: MAGI assay, T/F HIV-1 clone pCH058.c/2960. The conditions noted are these: Human immunodeficiency virus 1, MAGI.
From the text: as §1, §2, §3

Consider `C=CCN(C(=O)OCc1ccc([N+](=O)[O-])cc1)C1CC2CCC(C1)N2CCC(C)(CN(C)S(=O)(=O)c1ccccc1)c1ccccc1` (stereo not drawn) [GRL-117C], for which the IC50 is 2 ± 0.6 nM in the test with pCH040.c/2625; 0.6 nM in the test on R5-HIV-1Ba-L; 3.5 nM in the test with CC1/85 cl.7; 1.9 ± 0.3 nM in the test with pCH0.6.c/2633; 2.1 ± 0.2 nM in the test with pTHRO.c/2626; 1.9 to 3.2 nM in test [1]. The same compound displayed an IC50 with pCH058.c/2960 of 3.2 ± 1 nM. Also, the 90% effect concentration (IC90) came out at 8.9 nM with R5-HIV-1Ba-L and 28.9 nM in the test on CC1/85 cl.7.

(Values after article PMC6423129, “Activity and structural analysis of GRL-117C: a novel small molecule CCR5 inhibitor active against R5-tropic HIV-1s” (Scientific Reports, 2019).)
